Reference: ChEMBL document CHEMBL3045978, “Sensitivity of Botrytis cinerea to chitosan and acibenzolar-S-methyl” (Pest Manag Sci, 2010)
Converted amounts (≈) assume the structure as drawn. The source made the active and inactive calls. The rule behind the calls is not given here.

Key:
Botrytis cinerea [1] = assay: Antifungal activity against Botryotinia fuckeliana infected grape assessed as decrease in lesion diameter at 1 to 3 mg/ml applied by dipping 24 hr prior to infection measured after 5 to 7 days at 4 degC relative to untreated-control; assay type: functional, organism-based
Botrytis cinerea [2] = assay: Antifungal activity against Botryotinia fuckeliana infected grape assessed as decrease in lesion diameter at 3 mg/ml applied by dipping 24 hr prior to infection measured after 3 days at 4 degC relative to untreated-control; assay type: functional, organism-based
Botrytis cinerea [3] = assay: Antifungal activity against Botryotinia fuckeliana infected grape assessed as decrease in lesion diameter at 3 mg/ml applied by dipping 24 hr prior to infection measured after 4 days at 4 degC relative to untreated-control; assay type: functional, organism-based
Botrytis cinerea [4] = assay: Antifungal activity against Botryotinia fuckeliana infected grape assessed as decrease in lesion diameter at 1 mg/ml applied by dipping 24 hr prior to infection measured after 4 days at 4 degC relative to untreated-control; assay type: functional, organism-based
Botrytis cinerea [5] = assay: Growth inhibition of Botryotinia fuckeliana at 0.5 mg/ml after 4 days relative to control; assay type: functional; conditions: 96 h, read-out: GI
Botrytis cinerea [6] = assay: Antifungal activity against Botryotinia fuckeliana infected grape assessed as decrease in lesion diameter at 3 mg/ml applied by dipping 24 hr prior to infection measured after 3 days at 24 degC relative to untreated-control; assay type: functional, organism-based
Botrytis cinerea [7] = assay: Antifungal activity against Botryotinia fuckeliana infected grape assessed as lesion diameter at 3 mg/ml applied by dipping 24 hr prior to infection measured after 4 days at 24 degC (reference value: 30.56 mm); assay type: functional
Botrytis cinerea [8] = assay: Antifungal activity against Botryotinia fuckeliana infected in grape assessed as lesion diameter at 1 mg/ml applied by dipping 24 hr prior to infection measured after 4 days at 24 degC (reference value: 30.56 mm); assay type: functional
Botrytis cinerea [9] = assay: Antifungal activity against Botryotinia fuckeliana assessed as mycelial growth after 4 days; assay type: functional, organism-based; conditions: 96 h
Botrytis cinerea [10] = assay: Growth inhibition of Botryotinia fuckeliana at 5 mg/ml after 4 days relative to control; assay type: functional; conditions: 96 h, read-out: GI
Botrytis cinerea [11] = assay: Growth inhibition of Botryotinia fuckeliana at 4 mg/ml after 4 days relative to control; assay type: functional; conditions: 96 h, read-out: GI
Botrytis cinerea [12] = assay: Antifungal activity against Botryotinia fuckeliana assessed as mycelial growth at 3 mg/ml after 4 days (reference value: 85 mm); assay type: functional
Botrytis cinerea [13] = assay: Antifungal activity against Botryotinia fuckeliana assessed as mycelial growth at 2 mg/ml after 4 days (reference value: 85 mm); assay type: functional
Botrytis cinerea [14] = assay: Growth inhibition of Botryotinia fuckeliana at 1 mg/ml after 4 days relative to control; assay type: functional; conditions: 96 h, read-out: GI

With `CSC(=O)c1cccc2nnsc12` [ACIBENZOLAR-S-METHYL] the Activity (Botrytis cinerea [1]) was “Active”, the Activity (Botrytis cinerea [2]) was “Active” and the Activity (Botrytis cinerea [3]) was “Active”. The Activity (Botrytis cinerea [4]) was “Active”, the inhibition of growth at 500 µg/mL (Botrytis cinerea [5]) was 16.3% and the Activity (Botrytis cinerea [6]) was “Active”. It also gave an Activity (Botrytis cinerea [7]) of 16.99 mm, an Activity (Botrytis cinerea [8]) of 17.94 mm and an EC50 (Botrytis cinerea [9]) of 3440 µg/mL (≈ 16.4 mM). The inhibition of growth at 5000 µg/mL (Botrytis cinerea [10]) was 66.2%, the inhibition of growth at 4000 µg/mL (Botrytis cinerea [11]) was 55.6% and the Activity (Botrytis cinerea [12]) was 44.72 mm. It also gave an Activity (Botrytis cinerea [13]) of 54.26 mm and an inhibition of growth at 1000 µg/mL (Botrytis cinerea [14]) of 23.1%.
